Laboratory results published in ChEMBL document CHEMBL6177915, “Design, synthesis and mechanistic insights into triclosan derived dimers as potential anti-plasmodials” (RSC Med Chem, 2025).

Assays:
Plasmodium falciparum [1] = test: Antiplasmodial activity against CQ-susceptible Plasmodium falciparum 3D7 assessed as inhibition of parasite growth incubated for 72 hrs by HRP2 based ELISA; type: functional, organism-based; details: 3D7, 72 h
Plasmodium falciparum [2] = test: Antiplasmodial activity against CQ-resistant Plasmodium falciparum W2 assessed as inhibition of parasite growth incubated for 72 hrs by HRP2 based ELISA; type: functional, organism-based; details: W2, 72 h
[3] = Cytotoxicity against African green monkey Vero E6 cells assessed as cell viability measured after 48 hrs incubation by MTT assay; type: toxicity, cell-based, Vero C1008; details: chlorocebus sabaeus
[4] = Selectivity index, ratio of CC50 for Cytotoxicity against African green monkey Vero E6 cells to IC50 for Antiplasmodial activity against CQ-resistant Plasmodium falciparum W2; type: toxicity, cell-based; details: read-out: Ratio CC50/IC50
Plasmodium falciparum [5] = test: Resistance index, ratio of IC50 for antiplasmodial activity against CQ-resistant Plasmodium falciparum W2 to IC50 for antiplasmodial activity against CQ-susceptible Plasmodium falciparum 3D7; type: functional
Plasmodium falciparum [6] = test: Antiplasmodial activity against Plasmodium falciparum W2; type: functional, organism-based
Heme [7] = test: Binding affinity to heme assessed as binding constant logK of the compound in HEPES buffer at pH 7.4
Heme [8] = test: Binding affinity to heme assessed as binding constant logK of the compound in MES buffer at pH 5.6
[9] = Inhibition of Plasmodium falciparum enoyl ACP reductase

Row | SMILES | IC50 (Plasmodium falciparum [1]) [µM] | IC50 (Plasmodium falciparum [2]) [µM] | CC50 at 48 h [3] [µM] | selectivity ratio [4] | Ratio IC50 (Plasmodium falciparum [5]) | IC50 (Plasmodium falciparum [6]) [µM] | log K (Heme [7]) | log K (Heme [8]) | IC50 [9] [µM]
1 | O=[N+]([O-])c1cc(Oc2ccc(Cl)cc2Cl)c(OCc2cn(CCCCCCOc3cc(Cl)ccc3Oc3ccc(Cl)cc3Cl)nn2)cc1Cl | 26.3 | 25.4 | 54.9 | 2.2 | 0.96 | – | – | – | –
2 | Clc1ccc(Oc2ccc(Cl)cc2OCCCCCOc2cc(Cl)ccc2Oc2ccc(Cl)cc2Cl)c(Cl)c1 | 26.1 | 34.4 | 70.2 | 2 | 1.31 | – | – | – | –
3 | Oc1cc(Cl)c(NCc2cn(CCCCCCOc3cc(Cl)ccc3Oc3ccc(Cl)cc3Cl)nn2)cc1Oc1ccc(Cl)cc1Cl | 24.3 | 25.7 | 66.3 | 2.6 | 1.05 | – | – | – | –
4 | C=C[C@H]1C[N@@]2CC[C@H]1C[C@H]2[C@H](O)c1ccnc2ccc(OC)cc12 [QUININE] | – | – | > 100 | > 222 | – | – | – | – | –
5 | Oc1cc(Cl)c(NCc2cn(CCCCCOc3cc(Cl)ccc3Oc3ccc(Cl)cc3Cl)nn2)cc1Oc1ccc(Cl)cc1Cl | 27.5 | 20 | 75 | 3.8 | 0.72 | – | – | – | –
6 | CCNCc1cc(Nc2ccnc3cc(Cl)ccc23)ccc1O [DESETHYL AMODIAQUINE] | – | – | 87 | 725 | 6 | – | – | – | –
7 | Oc1cc(Cl)c(NCc2cn(CCOc3cc(Cl)ccc3Oc3ccc(Cl)cc3Cl)nn2)cc1Oc1ccc(Cl)cc1Cl | 17.2 | 22.3 | 99.3 | 4.5 | 1.29 | – | – | – | –
8 | Clc1ccc(Oc2ccc(Cl)cc2OCCCOc2cc(Cl)ccc2Oc2ccc(Cl)cc2Cl)c(Cl)c1 | 27.7 | 30.9 | 81.5 | 2.6 | 1.11 | – | – | – | –
9 | CCN(CC)CCCC(C)Nc1ccnc2cc(Cl)ccc12 (configuration not stated) [CHLOROQUINE] | – | – | > 100 | – | – | – | – | – | –
10 | O=C(N/N=C/c1ccc(OCc2cn(CCNc3ccnc4cc(Cl)ccc34)nn2)cc1)c1cnncn1 | – | – | – | – | – | 0.26 | – | – | –
11 | O=[N+]([O-])c1cc(Oc2ccc(Cl)cc2Cl)c(OCc2cn(CCCCCOc3cc(Cl)ccc3Oc3ccc(Cl)cc3Cl)nn2)cc1Cl | 28.2 | 30.7 | 116 | 3.8 | 1.08 | – | – | – | –
12 | O=[N+]([O-])c1cc(Oc2ccc(Cl)cc2Cl)c(OCc2cn(CCCOc3cc(Cl)ccc3Oc3ccc(Cl)cc3Cl)nn2)cc1Cl | 22.5 | 25.8 | 81.9 | 3.2 | 1.14 | – | – | – | –
13 | Oc1cc(Cl)c(NCc2cn(CCCCOc3cc(Cl)ccc3Oc3ccc(Cl)cc3Cl)nn2)cc1Oc1ccc(Cl)cc1Cl | 24.2 | 21.8 | 72.1 | 3.3 | 0.9 | – | – | – | –
14 | Clc1ccc(Oc2ccc(Cl)cc2OCCCCCn2cc(COc3cc(Cl)ccc3Oc3ccc(Cl)cc3Cl)nn2)c(Cl)c1 | 19.3 | 25.3 | 64.6 | 2.6 | 1.3 | – | – | – | –
15 | Clc1ccc(Oc2ccc(Cl)cc2OCCCCOc2cc(Cl)ccc2Oc2ccc(Cl)cc2Cl)c(Cl)c1 | 23.9 | 22.3 | 99.7 | 4.5 | 0.93 | – | – | – | –
16 | O=[N+]([O-])c1cc(Oc2ccc(Cl)cc2Cl)c(OCc2cn(CCCCOc3cc(Cl)ccc3Oc3ccc(Cl)cc3Cl)nn2)cc1Cl | 32.9 | 25.4 | 83.9 | 3.3 | 0.77 | – | – | – | –
17 | C=C[C@H]1CN2CC[C@H]1C[C@H]2[C@H](O)c1ccnc2ccc(OC)cc12 [QUININE] | 0.12 | 0.45 | – | – | 3.75 | – | – | – | –
18 | Oc1cc(Cl)ccc1Oc1ccc(Cl)cc1Cl | – | – | – | – | – | – | 5.8 | 6.16 | –
19 | Oc1cc(Cl)c(NCc2cn(CCCOc3cc(Cl)ccc3Oc3ccc(Cl)cc3Cl)nn2)cc1Oc1ccc(Cl)cc1Cl | 20.8 | 10.9 | 76.8 | 7 | 0.52 | – | 5.17 | 6.3 | –
20 | Clc1ccc(Oc2ccc(Cl)cc2OCCn2cc(COc3cc(Cl)ccc3Oc3ccc(Cl)cc3Cl)nn2)c(Cl)c1 | 21.9 | 21.3 | 105 | 4.9 | 0.97 | – | – | – | –
21 | Clc1ccc(Oc2ccc(Cl)cc2OCCCn2cc(COc3cc(Cl)ccc3Oc3ccc(Cl)cc3Cl)nn2)c(Cl)c1 | 21 | 24.7 | 103 | 4.2 | 1.17 | – | – | – | –
22 | N#Cc1ccc(Oc2ccc(Cl)cc2Cl)c(O)c1 | – | – | – | – | – | – | – | – | 0.049
23 | Clc1ccc(Oc2ccc(Cl)cc2OCCCCCCn2cc(COc3cc(Cl)ccc3Oc3ccc(Cl)cc3Cl)nn2)c(Cl)c1 | 31.2 | 32.6 | 104 | 3.2 | 1.04 | – | – | – | –
24 | Clc1ccc(Oc2ccc(Cl)cc2OCCOc2cc(Cl)ccc2Oc2ccc(Cl)cc2Cl)c(Cl)c1 | 12.1 | 9.27 | 90.9 | 9.8 | 0.77 | – | 6.4 | 6.58 | –
25 | O=[N+]([O-])c1cc(Oc2ccc(Cl)cc2Cl)c(OCc2cn(CCOc3cc(Cl)ccc3Oc3ccc(Cl)cc3Cl)nn2)cc1Cl | 29.8 | 28.6 | 91.8 | 3.6 | 0.95 | – | – | – | –
26 | Clc1ccc(Oc2ccc(Cl)cc2OCCCCn2cc(COc3cc(Cl)ccc3Oc3ccc(Cl)cc3Cl)nn2)c(Cl)c1 | 20.7 | 22.2 | 76.5 | 3.5 | 1.06 | – | – | – | –
27 | Clc1ccc(Oc2ccc(Cl)cc2OCCCCCCOc2cc(Cl)ccc2Oc2ccc(Cl)cc2Cl)c(Cl)c1 | 21.2 | 20.3 | 63.3 | 3.1 | 0.95 | – | – | – | –
